Assay results: patent EP4722212A1, “NOVEL COMPOUND FOR INHIBITING PROTEIN KINASES AND PHARMACEUTICAL COMPOSITION COMPRISING SAME” (Magicbullettherapeutics Co., Ltd., priority 2023, dated 2024)

Columns and labels:
[1] = tested on: 22Rv1; experiment: Cell line inhibition analysis (CCK-8, 72 h); format: cell-based; settings: Homo sapiens; 22Rv1, 72 hours; read-out: Cell growth inhibition GI50 22Rv1
Summary of the method: (§1)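 Cells attached one day, then treated 72 h at 37 °C with nine 3-fold compound dilutions (final 0-50 µM) or DMSO. Growth read by CCK-8 absorbance at 450 nm after 2 h, medium-blank corrected, with a day-0 plate defining 0% growth; GI50 calculated.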

[2] = tested on: C4-2B; experiment: Cell line inhibition analysis (CCK-8, 72 h); format: cell-based; settings: read-out: Cell growth inhibition GI50 C4-2B
Summary of the method: as §1

[3] = biological target: CDK6/CYCLIN D2 (Homo sapiens, UniProt Q00534); experiment: Kinase panel; format: biochemical; settings: CDK6/CYCLIN D2, 1 µM; read-out: residual enzyme activity
Summary of the method: (§2)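 Biochemical full-panel kinase assay with compounds tested at a single concentration of 1 µM. Values are residual enzyme activity. Kinases were flagged when residual activity was 40% or less, i.e. inhibition of 60% or more.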

[4] = biological target: DLK/MAP3K12 (Homo sapiens, UniProt Q12852); experiment: Kinase panel; format: biochemical; settings: DLK/MAP3K12, 1 µM; read-out: residual enzyme activity
Summary of the method: as §2

Sequence of CDK6/CYCLIN D2 (Q00534 whole entry, species assumed): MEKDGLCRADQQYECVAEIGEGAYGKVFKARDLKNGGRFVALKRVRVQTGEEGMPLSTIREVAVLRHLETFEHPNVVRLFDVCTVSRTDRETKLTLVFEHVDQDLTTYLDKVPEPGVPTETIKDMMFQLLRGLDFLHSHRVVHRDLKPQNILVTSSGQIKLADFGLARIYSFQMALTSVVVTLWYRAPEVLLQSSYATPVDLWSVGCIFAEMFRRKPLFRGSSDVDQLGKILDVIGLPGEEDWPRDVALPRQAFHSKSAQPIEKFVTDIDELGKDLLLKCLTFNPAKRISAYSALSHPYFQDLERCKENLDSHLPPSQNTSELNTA
Sequence of CDK6/CYCLIN D2 (P30279 whole entry partner, species assumed): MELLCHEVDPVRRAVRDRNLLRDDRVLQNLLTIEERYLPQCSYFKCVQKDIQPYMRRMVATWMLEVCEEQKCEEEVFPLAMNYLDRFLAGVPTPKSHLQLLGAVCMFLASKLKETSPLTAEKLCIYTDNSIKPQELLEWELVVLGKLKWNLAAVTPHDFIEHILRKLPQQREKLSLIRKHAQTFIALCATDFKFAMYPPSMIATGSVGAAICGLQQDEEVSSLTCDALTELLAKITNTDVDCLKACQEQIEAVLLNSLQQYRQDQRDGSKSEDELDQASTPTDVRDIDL
Sequence of DLK/MAP3K12 (Q12852 whole entry): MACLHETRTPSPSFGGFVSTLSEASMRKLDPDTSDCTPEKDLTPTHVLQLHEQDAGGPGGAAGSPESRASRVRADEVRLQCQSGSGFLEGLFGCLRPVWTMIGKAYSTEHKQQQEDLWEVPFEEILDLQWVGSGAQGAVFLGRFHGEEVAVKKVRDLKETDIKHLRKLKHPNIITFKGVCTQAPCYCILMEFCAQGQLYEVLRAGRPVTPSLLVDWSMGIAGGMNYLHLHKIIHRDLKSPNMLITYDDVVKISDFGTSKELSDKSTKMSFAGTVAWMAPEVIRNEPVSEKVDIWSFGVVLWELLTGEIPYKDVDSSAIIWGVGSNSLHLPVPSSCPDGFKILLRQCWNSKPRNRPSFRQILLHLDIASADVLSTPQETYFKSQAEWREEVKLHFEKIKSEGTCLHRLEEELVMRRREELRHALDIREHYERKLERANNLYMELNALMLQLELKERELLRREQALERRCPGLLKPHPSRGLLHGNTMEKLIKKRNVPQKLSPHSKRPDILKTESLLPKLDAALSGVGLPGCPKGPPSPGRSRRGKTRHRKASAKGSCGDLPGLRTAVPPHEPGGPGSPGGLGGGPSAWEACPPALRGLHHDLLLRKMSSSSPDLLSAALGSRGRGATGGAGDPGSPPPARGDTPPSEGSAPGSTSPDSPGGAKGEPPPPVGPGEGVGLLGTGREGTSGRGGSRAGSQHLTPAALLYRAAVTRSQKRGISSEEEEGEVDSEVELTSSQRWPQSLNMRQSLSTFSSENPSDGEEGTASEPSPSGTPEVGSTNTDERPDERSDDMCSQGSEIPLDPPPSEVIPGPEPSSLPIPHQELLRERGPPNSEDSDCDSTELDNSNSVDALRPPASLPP

SMILES	GI50 [1] [nM]	GI50 [2] [nM]	remaining activity at 1 µM [3] [%]	remaining activity at 1 µM [4] [%]
Cc1cn(-c2cc(C(=O)Nc3ccc(C)c(N4Cc5cnc(NC6CC6)nc5C5(CC5)C4=O)c3)cc(C(F)(F)F)c2)cn1 [Compound 8, N-(3-(2'-(cyclopropylamino)-7'-oxo-5'H-spiro[cyclopropane-1,8'-pyrido[4,3-d]pyrimidine]-6'(7'H)-yl)-4-methylphenyl)-3-(4-methyl-1H-imidazol-1-yl)-5-(trifluoromethyl)benzamide]	< 1000	< 1000	> 40	–
Cc1ccc(Nc2ncc3c(n2)C2(CC2)C(=O)N(c2cc(NC(=O)c4cccc(C(F)(F)F)c4)ccc2C)C3)cn1 [Compound 51, N-(4-methyl-3-(2'-((6-methylpyridin-3-yl)amino)-7'-oxo-5'H-spiro[cyclopropane-1,8'-pyrido[4,3-d]pyrimidine]-6'(7'H)-yl)phenyl)-3-(trifluoromethyl)benzamide]	–	–	–	> 40
